Results on two compounds are retold here after patent US9707200B2, “Metabolism-improving agent comprising rare fatty acid” (KYOTO UNIVERSITY, priority 2012, dated 2017).

One assay deals with HepG2 cells. As to the kind of experiment: Intracellular triacylglycerol accumulation by LXR agonist. It is filed as cell-based, human. The following applies: 10 nM T0901317 + 60 μM fatty acid, 24 hr. On the procedure:
HepG2 cells (2.0×10^5 cells/mL) were cultured in DMEM medium containing 10% FES for 24 hr, and the medium was exchanged with 0.1% BSA-containing DMEM medium containing 10 nM LXR agonist T0901317 (Cayman Chemicals) and 60 μM various fatty acid. After culture for 24 hr, the cells were recovered, and total RNA was extracted using Sepasol reagent (Nacalai Tesque). After DNase treatment, reverse transcription was performed using SuperScriptII (Invitrogen) to give a cDNA solution. Using SYBR Green Mix (Bio-Rad, Richmond, Calif.) and gene-specific primer (Table 1), real-time PCR was performed as follows.
1. Reaction at 96° C., 15 min, 2. reaction at 96° C., 15 sec, 3. reaction at 60° C. for 30 sec, 4. measurement of fluorescence, 5. 2-4 were repeated 40 times, 6. the melting curve was measured from 65° C. to 95° C. at 0.4° C. intervals. As the internal standard, 18S rRNA was used. The genes involved in the fatty acid synthesis as measured were Sterol regulatory element binding protein-1c (SREBP-1c), Stearoyl coenzyme A desaturase-1 (SCD-1), Fatty acid synthase (FAS), and Acetyl CoA carboxylase-1 and -2 (ACC-1, 2). As for the amount of accumulated intracellular TG, the lipid was extracted with chloroform-methanol, and quantified by triglyceride-′E Test Wako (Wako Pure Chemical Industries, Ltd.).

Another assay has as its system KKAy mouse. As to the kind of experiment: Effect in obesity or diabetes model mouse fed high-fat diet with added fatty acid. The following applies: for body weight: 4 weeks; for body weight / blood glucose level: vs control group. It is filed as in vivo. On the procedure: (1) Using KKAy mouse as obesity or diabetes model mouse, the effect of KetoA, HYA was evaluated. KKAy mice (KKAy/TaJcl, male, 4-week-old, purchased from CLEA Japan, Inc. and individually bred) were preliminarily bred on a commercially available normal diet (ND) for 1 week, divided into 5 groups, and each group was bred on a high-fat diet (HFD) as a basic feed and given a non-addition feed (control group), or a feed added with different amounts of KetoA and HYA for 4 weeks. The KetoA, HYA-added feed was prepared by adding KetoA, HYA to HFD such that the amount to be added was 0.05% (w/w) (0.05% group) or 0.1% (w/w) (0.1% group).
(2) The profile of the body weight and blood glucose level of the KKAy mouse was measured. After the start of the test feed breeding, the oxygen consumption level was measured on day 16-19, an oral glucose loading test was performed on day 24, and the rectal temperature was measured on day 26. The next day of the completion of experimental breeding, the KKAy mouse was dissected, and the organ weight and plasma neutral fat level were measured.

The target of a further assay is T1, PPARα (Homo sapiens, UniProt Q07869).
T1 construct: expressed in transfected cells; host or cells: CV-1 (African green monkey kidney)
T1 sequence (Q07869 239-466 limits assumed): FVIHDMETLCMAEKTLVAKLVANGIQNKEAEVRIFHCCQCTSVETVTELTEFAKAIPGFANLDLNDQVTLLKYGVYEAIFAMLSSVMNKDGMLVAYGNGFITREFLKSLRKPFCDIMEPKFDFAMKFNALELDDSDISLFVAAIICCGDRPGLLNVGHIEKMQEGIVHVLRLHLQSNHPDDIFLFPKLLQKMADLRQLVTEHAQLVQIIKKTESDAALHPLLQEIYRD
As to the kind of experiment: PPARα ligand activity, GAL4-PPARα reporter luciferase assay in CV-1 cells. It is filed as cell-based. The note with it: 24 hr incubation, KetoA and HYA each at 30 μM, other fatty acids by a similar method. On the procedure:
To evaluate the function of oxo fatty acid and the like, PPARα, γ-activating action was measured first. The measurement was performed in reference to Nobuyuki Takahashi et al., FEES Letters 514 (2002) p. 315-322, “Dual action of isoprenols from herbal medicines on both PPARgamma and PPARalpha in 3T3-L1 adipocytes and HepG2 hepatocytes.”, the section of Materials and Methods “Reporter plasmids and luciferase assays”. To be specific, a plasmid containing DNA encoding a fused protein of PPARα, γ ligand binding region and GAL4 DNA binding region (pM-hPPARα or pM-hPPARγ), a reporter plasmid containing GAL4 binding DNA sequence linked to luciferase (p4xUASg-tk-luc), and internal control (pRL-CMV) to standardize transfection efficiency were introduced into CV-1 cell derived from the kidney of African green monkey. The ligand described below was added to the cells and, after incubation for 24 hr, luciferase activity was measured. As a ligand, KetoA and HYA were each added at 30 μM.
The concentration of the sample was adjusted with ethanol. Ethanol was used as a negative control, […], and GW7647 (10 nM) and Troglitazone (5 μM) were used as […].

For `CCCCC/C=C\CC(O)CCCCCCCCC(=O)O` (stereo not drawn) [HYA, 10-hydroxy-cis-12-octadecenoic acid], the “suppression of intracellular triacylglycerol increase by LXR agonist” value with HepG2 cells is “significantly suppressed”. In the assay with KKAy mouse (HFD with 0.05% (w/w) added), the body weight entry was “significant suppression of body weight increase”. The blood glucose level result in the assay on KKAy mouse (added-feed group, amount not specified) is on record as “tendency toward suppression of blood glucose level increase”. Besides, the “PPARα agonist activity (relative luciferase activity)” value at PPARα was “PPARα agonist activity”.

For the compound `CCCCC/C=C\CC(=O)CCCCCCCCC(=O)O` [KetoA, 10-oxo-cis-12-octadecenoic acid], the “suppression of intracellular triacylglycerol increase by LXR agonist” value with HepG2 cells is listed as “significantly suppressed”. The blood glucose level entry is listed as “tendency toward suppression of blood glucose increase” with KKAy mouse (0.05% group, at 4 weeks of test diet) and “stronger, significant hypoglycemic action” with KKAy mouse (0.1% group, at 4 weeks of test diet). For the same compound, the “intraperitoneal white fat weight” value with KKAy mouse (0.1% group, after 4 weeks) is “significant decrease”. For the same compound, in the assay on KKAy mouse (0.1% group, after 4 weeks), the “plasma neutral fat level” value is “significant decrease”. For the same compound, the results for the body weight entry in the assay with KKAy mouse (HFD with 0.05% (w/w) added) and with KKAy mouse (HFD with 0.1% (w/w) added) were “body weight increase suppression tendency” and “significant suppression of body weight increase”, respectively. In the assay with KKAy mouse (day 16-19, added-feed group vs control group), the oxygen consumption level entry is “increase in the oxygen consumption level”. Also, in the assay on KKAy mouse (day 26, added-feed group vs control group), the rectal temperature entry is recorded as “increase in the rectal temperature”. For the same compound, the “PPARα agonist activity (relative luciferase activity)” value on PPARα is “strong PPARα and γ agonist activity”.
